The values that follow are results of earlier work, collected in paper PMC2839367 (The Science of the total environment, 2010).

As usually defined, the EC50 is the concentration needed to bring the measured effect to its halfway point.

Data set [1] has as its system S. cerevisiae BLYES estrogen sensitive strain. To be noted: ref Sanseverino et al (2005).
In the next data set the target is human estrogen receptor. Particulars: ref Folmar et al (2002).

With nonylphenol, the EC50 was 17 µM in data set [1] and 290 µM on human estrogen receptor.
